How the values were obtained:
CDK2/cyclin A [1] = target: T1, CDK2/cyclin A (Homo sapiens, UniProt P24941); assay: Reaction Biology 33P-ATP filter-binding kinase assay, CDK2/cyclin A; assay type: biochemical
CDK2 = CDK2 (Homo sapiens, UniProt P24941); assay: DiscoverX kinase binding assay for Kd; conditions: for better binding affinity for CDK2 compared to screening hit 3: relative to 3
MCF-7 cell line = assay: Antiproliferation assay; assay type: cell-based; conditions: 72 h, alamarBlue, highest concentration tested
HSP90 = assay: Test against HSP90; conditions: data not shown
MDCK cell line = assay: MDCK cell permeability assay; assay type: in vitro ADME; conditions: 1 μM, 2 h; for Papp (A-B) (10^−6, cm/s): apical to basolateral; for Papp (B-A) (10^−6, cm/s): basolateral to apical
CDK complexes = assay: Reaction Biology single-dose kinase profiling of CDK complexes; assay type: biochemical; conditions: all tested CDK complexes
CDK2/cyclin A [2] = target: T1, CDK2/cyclin A; assay: CDK2/cyclin A enzyme assay; assay type: biochemical; conditions: Tables 1 and 2
CDK2/cyclin E = CDK2/cyclin E (Homo sapiens, UniProt P24941); assay: Reaction Biology 33P-ATP filter-binding kinase assay, CDK2/cyclin E; assay type: biochemical

With `Cc1nn(-c2ccccn2)c2c1C(=O)CC(C)(C)C2Br` (stereo not shown) [Compound 3, 7-Bromo-3,6,6-trimethyl-1-(pyridin-2-yl)-6,7-dihydro-1H-indazol-4(5H)-one] the IC50 (CDK2/cyclin A [1]) was 86 nM, the Kd (CDK2) was 15000 nM and the “antiproliferative activities against MCF-7 cell line, none up to” value (“antiproliferative activities” for short) (MCF-7 cell line) was > 200 µM. For the same compound, the “activity against HSP90” value (HSP90) was “did not exhibit any activity”, the “Papp (A-B) (10^−6, cm/s)” value (MDCK cell line) was 20.1 10^−6, cm/s and the “Papp (B-A) (10^−6, cm/s)” value (MDCK cell line) was 9.52 10^−6, cm/s.
For `Cc1nn(-c2ccccn2)c2c1C(=O)CC(C)C2Br` (stereo not drawn) [Compound 18b-cis, 7-Bromo-3,6-dimethyl-1-(pyridin-2-yl)-6,7-dihydro-1H-indazol-4(5H)-one], the “Inhibition of CDK complexes at 1 μM, in words” value (CDK complexes) was “did not exhibit significant inhibitory activity”.
`Cc1nn(-c2ccccn2)c2c1C(=O)CC(c1ccccc1)C2Br` (stereo not shown) [Compound 18d, 7-Bromo-3-methyl-6-phenyl-1-(pyridin-2-yl)-6,7-dihydro-1H-indazol-4(5H)-one] was tested, and the “CDK2/cyclin A inhibitory activity, in words” value (CDK2/cyclin A [2]) was “inactive”.
`Cc1nn(-c2ccccn2)c2c1NC(=O)CC(C)(C)C2` [Compound 19, 3,7,7-Trimethyl-1-(pyridin-2-yl)-4,6,7,8-tetrahydropyrazolo[4,3-b]azepin-5(1H)-one] was tested, and the “CDK2/cyclin A inhibitory activity, in words” value (CDK2/cyclin A [2]) was “inactive”.
`Cc1nn(-c2ccccn2)c2c1C(=O)NCC(C)(C)C2` [Compound 20, 3,7,7-Trimethyl-1-(pyridin-2-yl)-5,6,7,8-tetrahydropyrazolo[4,3-c]azepin-4(1H)-one] was tested, and the “CDK2/cyclin A inhibitory activity, in words” value (CDK2/cyclin A [2]) was “inactive”.
For `Cc1nn(-c2ccccn2)c2c1C(=O)NCC(C)(C)C2Br` (stereo not shown) [Compound 21, 8-Bromo-3,7,7-trimethyl-1-(pyridin-2-yl)-5,6,7,8-tetrahydropyrazolo[4,3-c]azepin-4(1H)-one], the “CDK2/cyclin A inhibitory activity, in words” value (CDK2/cyclin A [2]) was “moderately active”.
With `Cc1nn(-c2ccccn2)c2c1C(O)CC(C)(C)C2Br` (stereo not shown) [Compound 22, 7-Bromo-3,6,6-trimethyl-1-(pyridin-2-yl)-4,5,6,7-tetrahydro-1H-indazol-4-ol] the “CDK2/cyclin A inhibitory activity, in words” value (CDK2/cyclin A [2]) was “weak inhibitory activity”.
`Cc1nn(-c2ccccn2)c2c1/C(=N/O)CC(C)(C)C2Br` (stereo not shown) [Compound 23, 7-Bromo-3,6,6-trimethyl-1-(pyridin-2-yl)-6,7-dihydro-1H-indazol-4(5H)-one Oxime] was tested, and the “CDK2/cyclin A inhibitory activity, in words” value (CDK2/cyclin A [2]) was “weak inhibitory activity”.
For `Cc1cccnc1-n1nc(C)c2c1CC(C)(C)C(Br)C2=O` (stereo not shown) [Compound 40, 5-Bromo-3,6,6-trimethyl-1-(3-methylpyridin-2-yl)-6,7-dihydro-1H-indazol-4(5H)-one], the “CDK2/cyclin A inhibitory activity, in words” value (CDK2/cyclin A [2]) was “low activities”.
`Cc1nn(-c2ncccc2C(F)(F)F)c2c1C(=O)CC(C)(C)C2Br` (stereo not shown) [Compound 46, 7-Bromo-3,6,6-trimethyl-1-(3-(trifluoromethyl)pyridin-2-yl)-6,7-dihydro-1H-indazol-4(5H)-one] was tested, and the “CDK2/cyclin A inhibitory activity, in words” value (CDK2/cyclin A [2]) was “low activities”.
In the case of `Cc1nn(-c2ncccc2C(F)(F)F)c2c1C(=O)C(Br)C(C)(C)C2` (stereo not shown) [Compound 47, 5-Bromo-3,6,6-trimethyl-1-(3-(trifluoromethyl)pyridin-2-yl)-6,7-dihydro-1H-indazol-4(5H)-one], the “CDK2/cyclin A inhibitory activity, in words” value (CDK2/cyclin A [2]) is reported as “low activities”.
In the case of `Cc1nn(-c2nccs2)c2c1C(=O)CC(C)(C)C2Br` (stereo not shown) [Compound 53, 7-Bromo-3,6,6-trimethyl-1-(thiazol-2-yl)-6,7-dihydro-1H-indazol-4(5H)-one], the IC50 (CDK2/cyclin A [1]) is reported as 61.9 nM, the IC50 (CDK2/cyclin E) is reported as 2 nM and the “better binding affinity for CDK2 compared to screening hit 3” value (CDK2) is reported as 3 fold. For the same compound, the “antiproliferative activities” value (MCF-7 cell line) was > 200 µM.
For `Cc1nn(-c2ccncn2)c2c1C(=O)CC(C)(C)C2Br` (stereo not shown) [Compound 59, 7-Bromo-3,6,6-trimethyl-1-(pyrimidin-4-yl)-6,7-dihydro-1H-indazol-4(5H)-one], the IC50 (CDK2/cyclin A [1]) was 120 nM, the “better binding affinity for CDK2 compared to screening hit 3” value (CDK2) was 3 fold and the “antiproliferative activities” value (MCF-7 cell line) was > 200 µM.
In the case of `COCCc1ccc(OCC(O)CNC(C)C)cc1` (stereo not shown) [Metoprolol, metoprolol, reference compound], the “Papp (A-B) (10^−6, cm/s)” value (MDCK cell line) is reported as 26.9 10^−6, cm/s and the “Papp (B-A) (10^−6, cm/s)” value (MDCK cell line) is reported as 21.2 10^−6, cm/s.

Source: PMC7954990 (European journal of medicinal chemistry, 2021)
